In the NIST ThermoML archive (doi:10.1021/acs.jced.7b01097):

Conditions: 3000 kPa, Coriolis flow meter

CCCCCCCCCC [decane]
Conditions	mass density [kg/m3]
285.3 K, Liquid	736.8
313.1 K, Liquid	716.24
343.4 K, Liquid	706.6
354.5 K, Liquid	682.3
373.3 K, Liquid	660.16
423.7 K, Liquid	630.21
475.8 K, Liquid	588.61
523.2 K, Liquid	547.44
571.8 K, Liquid	487.16
624.2 K, Liquid	365.9
673.2 K, Gas	143.74
700.3 K, Gas	112.44
723 K, Gas	96.77
